Assay results reported in patent US10487092B2, “Pyrazolopyridinamines as MKNK1 and MKNK2 inhibitors” (BAYER PHARMA AKTIENGESELLSCHAFT, priority 2014, dated 2019).

The compounds below were run against human full-length MKNK1 (Homo sapiens (Human), UniProt Q9BUB5, T344D) (assay: MKNK1 kinase high ATP assay (TR-FRET)). Settings: not given.
human full-length MKNK1, sequence (Q9BUB5 other isoform, or with tags, fused parts or gaps T344D): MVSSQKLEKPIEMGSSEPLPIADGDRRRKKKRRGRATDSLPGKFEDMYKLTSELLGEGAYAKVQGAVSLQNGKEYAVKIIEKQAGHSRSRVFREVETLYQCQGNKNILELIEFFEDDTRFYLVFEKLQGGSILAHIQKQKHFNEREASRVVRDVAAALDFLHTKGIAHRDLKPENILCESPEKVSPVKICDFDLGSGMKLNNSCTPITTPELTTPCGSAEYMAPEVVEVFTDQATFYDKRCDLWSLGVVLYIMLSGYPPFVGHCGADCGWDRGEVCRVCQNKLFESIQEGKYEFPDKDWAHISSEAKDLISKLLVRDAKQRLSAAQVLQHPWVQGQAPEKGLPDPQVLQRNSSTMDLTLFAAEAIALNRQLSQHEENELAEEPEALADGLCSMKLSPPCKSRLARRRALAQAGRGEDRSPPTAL
Format: biochemical
Description: MKNK1 Kinase High ATP Assay
MKNK1-inhibitory activity at high ATP of compounds of the present invention after their preincubation with MKNK1 was quantified employing the TR-FRET-based MKNK1 high ATP assay as described in the following paragraphs.
A recombinant fusion protein of Glutathione-S-Transferase (GST, N-terminally) and human full-length MKNK1 (amino acids 1-424 and T344D of accession number BAA 19885.1), expressed in insect cells using baculovirus expression system and purified via glutathione sepharose affinity chromatography, was purchased from Carna Biosciences (product no 02-145) and used as enzyme. As substrate for the kinase reaction the biotinylated peptide biotin-Ahx-IKKRKLTRRKSLKG (SEQ ID NO: 1, C-terminus in amide form) was used, which can be purchased e.g. from the company Biosyntan (Berlin-Buch, Germany).
For the assay 50 nL of a 100 fold concentrated solution of the test compound in DMSO was pipetted into a black low volume 384 well microtiter plate (Greiner Bio-One, Frickenhausen, Germany), 2 μL of a solution of MKNK1 in aqueous assay buffer [50 mM HEPES pH 7.5, 5 mM MgCl2, 1.0 mM dithiothreitol, 0.005% (v/v) Nonidet-P40 (Sigma)] was added and the mixture was incubated for 15 min at 22° C. to allow pre-binding of the test compounds to the enzyme before the start of the kinase reaction. Then the kinase reaction was started by the addition of 3 μL of a solution of adenosine-tri-phosphate (ATP, 3.3 mM=>final conc. in the 5 μL assay volume is 2 mM) and substrate (0.1 μM=>final conc. in the 5 μL assay volume is 0.06 μM) in assay buffer and the resulting mixture was incubated for a reaction time of 30 min at 22° C. The concentration of MKNK1 was adjusted depending of the activity of the enzyme lot and was chosen appropriate to have the assay in the linear range, typical concentrations were in the range of 0.003 μg/mL. The reaction was stopped by the addition of 5 μL of a solution of TR-FRET detection reagents (5 nM streptavidine-XL665 [Cisbio Bioassays, Codolet, France] and 1 nM anti-ribosomal protein S6 (pSer236)-antibody from Invitrogen [#44921G] and 1 nM LANCE EU-W1024 labeled ProteinG [Perkin-Elmer, product no. AD0071]) in an aqueous EDTA-solution (100 mM EDTA, 0.1% (w/v) bovine serum albumin in 50 mM HEPES pH 7.5).
The resulting mixture was incubated for 1 h at 22° C. to allow the formation of complex between the phosphorylated biotinylated peptide and the detection reagents. Subsequently the amount of phosphorylated substrate was evaluated by measurement of the resonance energy transfer from the Eu-chelate to the streptavidine-XL. Therefore, the fluorescence emissions at 620 nm and 665 nm after excitation at 350 nm were measured in a TR-FRET reader, e.g. a Rubystar (BMG Labtechnologies, Offenburg, Germany) or a Viewlux (Perkin-Elmer). The ratio of the emissions at 665 nm and at […] was taken as the measure for the amount of phosphorylated substrate. The data were normalised (enzyme reaction without inhibitor=0% inhibition, all other assay components but no enzyme=100% inhibition).
For `O=C1CCN(C(=O)[C@H]2CCc3c(sc4ncnc(Nc5ccn6nccc6c5)c34)C2)CC1` [Example 33, 1-{[(7S)-4-(Pyrazolo[1,5-a]pyridin-5-ylamino)-5,6,7,8-tetrahydro[1]benzothieno[2,3-d]pyrimidin-7-yl]carbonyl}piperidin-4-one], the IC50 was 96 nM.

Same assay, conditions: high ATP (2 mM), 15 min preincubation with enzyme; read-out: MKNK1 IC50
`CN(C)C(=O)CN(C)C(=O)[C@H]1CCc2c(sc3ncnc(Nc4ccn5nccc5c4)c23)C1` [Example 26, (7S)—N-[2-(Dimethylamino)-2-oxoethyl]-N-methyl-4-(pyrazolo[1,5-a]pyridin-5-ylamino)-5,6,7,8-tetrahydro[1]benzothieno[2,3-d]pyrimidine-7-carboxamide] showed an IC50 of 14 nM. Compound `CN(C)C1CN(C(=O)[C@H]2CCc3c(sc4ncnc(Nc5ccn6nccc6c5)c34)C2)C1` [Example 28, [3-(Dimethylamino)azetidin-1-yl][(7S)-4-(pyrazolo[1,5-a]pyridin-5-ylamino)-5,6,7,8-tetrahydro[1]benzothieno[2,3-d]pyrimidin-7-yl]methanone] has an IC50 of 19 nM. In the case of `CN1CCN(C(=O)[C@H]2CCc3c(sc4ncnc(Nc5ccn6nccc6c5)c34)C2)CC1` [Example 29, (4-Methylpiperazin-1-yl)[(7S)-4-(pyrazolo[1,5-a]pyridin-5-ylamino)-5,6,7,8-tetrahydro[1]benzothieno[2,3-d]pyrimidin-7-yl]methanone], the IC50 is reported as 20 nM. `CC1(O)CN(C(=O)[C@H]2CCc3c(sc4ncnc(Nc5ccn6nccc6c5)c34)C2)C1` [Example 30, (3-Hydroxy-3-methylazetidin-1-yl)[(7S)-4-(pyrazolo[1,5-a]pyridin-5-ylamino)-5,6,7,8-tetrahydro[1]benzothieno[2,3-d]pyrimidin-7-yl]methanone] showed an IC50 of 16 nM. For `CN(C)CCN1CCN(C(=O)[C@H]2CCc3c(sc4ncnc(Nc5ccn6nccc6c5)c34)C2)CC1` [Example 31, {4-[2-(Dimethylamino)ethyl]piperazin-1-yl}[(7S)-4-(pyrazolo[1,5-a]pyridin-5-ylamino)-5,6,7,8-tetrahydro[1]benzothieno[2,3-d]pyrimidin-7-yl]methanone], the IC50 was 26 nM. With `O=C([C@H]1CCc2c(sc3ncnc(Nc4ccn5nccc5c4)c23)C1)N1CCC(F)(F)C1` [Example 34, (3,3-Difluoropyrrolidin-1-yl)[(7S)-4-(pyrazolo[1,5-a]pyridin-5-ylamino)-5,6,7,8-tetrahydro[1]benzothieno[2,3-d]pyrimidin-7-yl]methanone] the IC50 was 71 nM. In the case of `O=C([C@H]1CCc2c(sc3ncnc(Nc4ccn5nccc5c4)c23)C1)N1CC2(COC2)C1` [Example 35, 2-Oxa-6-azaspiro[3.3]hept-6-yl[(7S)-4-(pyrazolo[1,5-a]pyridin-5-ylamino)-5,6,7,8-tetrahydro[1]benzothieno[2,3-d]pyrimidin-7-yl]methanone], the IC50 is reported as 75 nM. `O=C([C@H]1CCc2c(sc3ncnc(Nc4ccn5nccc5c4)c23)C1)N1C[C@@H]2C[C@H]1CO2` [Example 36, (1S,4S)-2-Oxa-5-azabicyclo[2.2.1]hept-5-yl[(7S)-4-(pyrazolo[1,5-a]pyridin-5-ylamino)-5,6,7,8-tetrahydro[1]benzothieno[2,3-d]pyrimidin-7-yl]methanone] was tested, and the IC50 was 91 nM. Work on `O=C([C@H]1CCc2c(sc3ncnc(Nc4ccn5nccc5c4)c23)C1)N1C[C@H]2C[C@@H]1CO2` [Example 37, (1R,4R)-2-Oxa-5-azabicyclo[2.2.1]hept-5-yl[(7S)-4-(pyrazolo[1,5-a]pyridin-5-ylamino)-5,6,7,8-tetrahydro[1]benzothieno[2,3-d]pyrimidin-7-yl]methanone] yielded an IC50 of 56 nM. `CN1C[C@@H]2C[C@H]1CN2C(=O)[C@H]1CCc2c(sc3ncnc(Nc4ccn5nccc5c4)c23)C1` [Example 38, [(1S,4S)-5-Methyl-2,5-diazabicyclo[2.2.1]hept-2-yl][(7S)-4-(pyrazolo[1,5-a]pyridin-5-ylamino)-5,6,7,8-tetrahydro[1]benzothieno[2,3-d]pyrimidin-7-yl]methanone] was tested, and the IC50 was 25 nM. `CN(C)CCN(C)C1CCN(C(=O)[C@H]2CCc3c(sc4ncnc(Nc5ccn6nccc6c5)c34)C2)CC1` [Example 40, (4-{[2-(Dimethylamino)ethyl](methyl)amino}piperidin-1-yl)[(7S)-4-(pyrazolo[1,5-a]pyridin-5-ylamino)-5,6,7,8-tetrahydro[1]benzothieno[2,3-d]pyrimidin-7-yl]methanone] gave an IC50 of 6 nM. `CN1C[C@H]2C[C@@H]1CN2C(=O)[C@H]1CCc2c(sc3ncnc(Nc4ccn5nccc5c4)c23)C1` [Example 42, [(1R,4R)-5-Methyl-2,5-diazabicyclo[2.2.1]hept-2-yl][(7S)-4-(pyrazolo[1,5-a]pyridin-5-ylamino)-5,6,7,8-tetrahydro[1]benzothieno[2,3-d]pyrimidin-7-yl]methanone] was tested, and the IC50 was 11 nM. Compound `O=C(NCCC(F)(F)F)[C@H]1CCc2c(sc3ncnc(Nc4cc5ccnn5cc4Cl)c23)C1` [Example 43, (7S)-4-[(6-Chloropyrazolo[1,5-a]pyridin-5-yl)amino]-N-(3,3,3-trifluoropropyl)-5,6,7,8-tetrahydro[1]benzothieno[2,3-d]pyrimidine-7-carboxamide] has an IC50 of 35 nM. For `CC(C)NC(=O)[C@H]1CCc2c(sc3ncnc(Nc4cc5ccnn5cc4Cl)c23)C1` [Example 44, (7S)-4-[(6-Chloropyrazolo[1,5-a]pyridin-5-yl)amino]-N-(propan-2-yl)-5,6,7,8-tetrahydro[1]benzothieno[2,3-d]pyrimidine-7-carboxamide], the IC50 was 54 nM. Work on `CN(C)C(=O)[C@H]1CCc2c(sc3ncnc(Nc4cc5ccnn5cc4Cl)c23)C1` [Example 45, (7S)-4-[(6-Chloropyrazolo[1,5-a]pyridin-5-yl)amino]-N,N-dimethyl-5,6,7,8-tetrahydro[1]benzothieno[2,3-d]pyrimidine-7-carboxamide] yielded an IC50 of 12 nM. `CCN(C)C(=O)[C@H]1CCc2c(sc3ncnc(Nc4cc5ccnn5cc4Cl)c23)C1` [Example 46, (7S)-4-[(6-Chloropyrazolo[1,5-a]pyridin-5-yl)amino]-N-ethyl-N-methyl-5,6,7,8-tetrahydro[1]benzothieno[2,3-d]pyrimidine-7-carboxamide] gave an IC50 of 11 nM. `CN(CC(F)F)C(=O)[C@H]1CCc2c(sc3ncnc(Nc4cc5ccnn5cc4Cl)c23)C1` [Example 47, (7S)-4-[(6-Chloropyrazolo[1,5-a]pyridin-5-yl)amino]-N-(2,2-difluoroethyl)-N-methyl-5,6,7,8-tetrahydro[1]benzothieno[2,3-d]pyrimidine-7-carboxamide] gave an IC50 of 18 nM. In the case of `CN(CCC(F)(F)F)C(=O)[C@H]1CCc2c(sc3ncnc(Nc4cc5ccnn5cc4Cl)c23)C1` [Example 48, (7S)-4-[(6-Chloropyrazolo[1,5-a]pyridin-5-yl)amino]-N-methyl-N-(3,3,3-trifluoropropyl)-5,6,7,8-tetrahydro[1]benzothieno[2,3-d]pyrimidine-7-carboxamide], the IC50 is reported as 35 nM. Compound `CCCCN(C)C(=O)[C@H]1CCc2c(sc3ncnc(Nc4cc5ccnn5cc4Cl)c23)C1` [Example 49, (7S)—N-Butyl-4-[(6-chloropyrazolo[1,5-a]pyridin-5-yl)amino]-N-methyl-5,6,7,8-tetrahydro[1]benzothieno[2,3-d]pyrimidine-7-carboxamide] has an IC50 of 15 nM. With `N#CC1CN(C(=O)[C@H]2CCc3c(sc4ncnc(Nc5cc6ccnn6cc5Cl)c34)C2)C1` [Example 50, 1-((7S)-4-[(6-Chloropyrazolo[1,5-a]pyridin-5-yl)amino]-5,6,7,8-tetrahydro[1]benzothieno[2,3-d]pyrimidin-7-ylcarbonyl)azetidine-3-carbonitrile] the IC50 was 7 nM. `CC1(O)CN(C(=O)[C@H]2CCc3c(sc4ncnc(Nc5cc6ccnn6cc5Cl)c34)C2)C1` [Example 52, (7S)-4-[(6-Chloropyrazolo[1,5-a]pyridin-5-yl)amino]-5,6,7,8-tetrahydro[1]benzothieno[2,3-d]pyrimidin-7-yl(3-hydroxy-3-methylazetidin-1-yl)methanone] gave an IC50 of 8 nM. For `CN(CCO)C(=O)[C@H]1CCc2c(sc3ncnc(Nc4cc5ccnn5cc4Cl)c23)C1` [Example 55, (7S)-4-[(6-Chloropyrazolo[1,5-a]pyridin-5-yl)amino]-N-(2-hydroxyethyl)-N-methyl-5,6,7,8-tetrahydro[1]benzothieno[2,3-d]pyrimidine-7-carboxamide], the IC50 was 18 nM.
